Data set [1] deals with BrdU-positive cells in the dentate gyrus. Description: BrdU labeling of cell proliferation, sacrifice 24 hr after BrdU. The data set is classed as in vivo, mouse. The following applies: for cell proliferation (BrdU-labeled cells in the SGZ): 1 mg/kg/day mini pumps; for BrdU-labeled cells in dentate gyrus: 27 days of treatment, 24 hours after BrdU. How it is done: (§1) To assess the effect of antidepressant or X-irradiation treatments on the number of BrdU-positive cells, mice were administered BrdU (4×75 mg/kg i.p., dissolved in saline, every 2 hr; Roche Diagnostic, Indianapolis, Ind.) and sacrificed 24 hr after the last BrdU injection (FIG. 2A, 3B, 5C-D). To determine cell survival and phenotype after the various antidepressant treatments, fluoxetine, imipramine and vehicle-treated mice were allowed to survive for 28 days after the last BrdU injection (FIG. 2C-D, 3C). After deep anesthesia with a mixture of ketamine/xylazine (100 mg/kg and 7 mg/kg respectively), mice were transcardially perfused (cold saline for 2 min, followed by 4% cold paraformaldehyde/0.1 M phosphate buffer for 5 min) and brains were collected for immunohistochemistry. All brains were post-fixed overnight in 4% paraformaldehyde at 4° C., then cryoprotected in 30% sucrose and stored at 4° C. Serial sections of the brains were cut (35 μm sections) through the entire hippocampus (plates 41-61; Franklin and Paxinos, 1997) on a cryostat and stored in PBS with 0.1% NaN3. For DAB staining, sections were slide-mounted and boiled in citric acid, pH 6.0, for 5 min, rinsed with PBS, and treated with 0.01% trypsin in Tris/CaCl2 for 10 min. Brain sections were incubated for 30 min with 2N HCl and blocked with 5% NGS (Jackson ImmunoResearch, West Grove, Pa.). Sections were then incubated over night at room temperature with anti-mouse BrdU (1:100; Becton-Dickinson). After washing with PBS, sections were incubated for 1 hr with secondary antibody (1:200 biotinylated goat anti-mouse; Sigma-Aldrich, St. Louis, Mo.) followed by amplification with an avidin-biotin complex (Vector Laboratories). The staining was visualized with DAB (Sigma-Aldrich, St. Louis, Mo.). For fluorescent double-labeling, the DNA-denaturation procedure consisted of the following steps: 2 hr incubation in 50% formamide-2×SSC at 65° C., 5 min rinse in 2×SSC, 30 min incubation in 2N HCl at 37° C., and 10 min rinse in 0.1 M boric acid, pH 8.5. Sections were then incubated in TBS-0.1% Triton X-100 (Tx)-5% normal donkey serum (NDS) for 30 min, followed by anti-rat BrdU primary antibody (1:100; Accurate Westbury, N.Y. or Serotec, Oxford, UK) in TBS/NDS/Tx for 24 hrs at 4° C. in combination with either a mouse monoclonal antibody to NeuN (1:500; Chemicon, Temecula, Calif.) or a rabbit polyclonal antibody to GFAP (1:800; DAKO, Carpinteria, Calif.). The fluorescent secondary antibodies used were biotin-conjugated donkey anti-rat (1:200) plus streptavidin Cy2 (1:200), donkey anti-mouse Cy3 (1:500), or donkey anti-rabbit Cy3 (1:500) (Jackson ImmunoResearch, West Grove, Pa.). Fluorescent images were taken with a Bio-Rad MRC 1000 confocal laser scanning system coupled to a Zeiss Axiovert 100 inverted microscope. For each image acquisition, a Kalman average of five frames was used. For quantification of BrdU/NeuN or BrdU/GFAP double-labeled cells, at least 50 BrdU-positive cells per animal were analyzed using Z-plane sectioning (1 μm steps).
It has recently been shown that various antidepressant treatments, including fluoxetine, increase neurogenesis in the dentate gyrus (DG) of the rat hippocampus (Malberg et al., 2000). […] To confirm that chronic fluoxetine induces changes in the number of BrdU-positive cells in the DG, we treated adult mice with either vehicle or fluoxetine for 5, 11 or 28 days. On the final day of treatment, all animals were injected with BrdU (four injections of 75 mg/kg), sacrificed 24 hours later, and perfused for immunohistochemistry. The treatment with fluoxetine caused a 60% increase in the number of BrdU positive cells in the DG of animals after either 11 or 28 days, but had no effect in animals treated for 5 days (FIGS. 2A and B).
(§2) In this set of experiments, wild type and 5-HT1A receptor KO mice were injected with BrdU following 27 days of treatment with fluoxetine, imipramine, or vehicle. […]
Background: Uptake of a labelled nucleoside into DNA is a usual measure of proliferation.

Another data set has as its system 129/SvEv mice. Nature of the data set: Novelty-suppressed feeding test (NSF). In kind it is in vivo, mouse.
The conditions of data set [2]: 129/SvEv, mouse, in vivo, po. As for the experimental part: Fluoxetine (Eli Lilly, Indianapolis, Ind.), Imipramine (Sigma-Aldrich, St. Louis, Mo.), Desipramine (Sigma-Aldrich, St. Louis, Mo.) and Haloperidol (Sigma-Aldrich, St. Louis, Mo.) were dissolved in tap water at a concentration of 80, 160, 160, and 8 mg/L, respectively. These concentration were established based on the average drinking amount and average weight of the mice used in the study to achieve a final dose of 10 (fluoxetine), 20 (imipramine and desipramine) and 1 (haloperidol) mg/kg/day. […] Vehicle animals received tap water. 8-hydroxy-2-(di-n-propylamino) tetralin (8-OH-DPAT, Sigma-Aldrich, St. Louis, Mo.) was dissolved in sterile saline (0.9% NaCl) at a concentration of 4.5 mg/ml, and delivered through Alzet osmotic mini-pumps (model 2004, Alzet, Cupertino, Calif.) implanted subcutaneously 28 days prior to behavioral testing. The final average dose delivered was 1 mg/kg/day. Sham mice were implanted with mini-pumps containing sterile saline.

A further data set deals with BALB/c mice. Nature of the data set: Chronic unpredictable stress paradigm (CUS). In kind it is in vivo, mouse. The following applies: for state of the fur (coat score) / grooming latency: 10 mg/kg/day i.p.; for weight loss induced by stress: data not shown. How it is done: The stress regimen used is a variant of the chronic mild stress procedures described by Willner et al. (Willner et al., 1992). Mice were subjected to various and repeated unpredictable stressors for a period of five weeks (Griebel et al., 2002). The different stressors used were: alterations of the bedding (repeated sawdust changing, removal of sawdust, damp sawdust, substitution of sawdust with 37° C. water); cage tilting (45°); predator sounds (15 min.); cage shift (mice were positioned in the empty cage of another male); light to dark or dark to light shifts (four light/dark successions of 30 min every 24 hours); reversal of the light/dark cycle. The fluoxetine treatment (10 mg/kg/day, i.p.) started at the beginning of the third week. The state of the coat was assessed at the end of the stress regimen (end of fifth week). The total score resulted from the sum of the score of seven different body parts: head, neck, dorsal coat, ventral coat, tail, forepaws and the hindpaws. A score of 0 was given for a well-groomed coat and 1 for a spoiled coat (see Griebel, 2002). The grooming latency was assessed at the end of the sixth week. This test consisted in squirting 200 μl of a 10% sucrose solution on the mouse's snout. The latency to start grooming was then recorded.
The CUS protocol consists of the sequential application of a number of stressors, presented in a varied and unpredictable manner during 5 weeks. The continued application of these stressors produces a deterioration in the state of the coat, an impaired grooming response, and weight loss (Griebel et al., 2002; Willner et al., 1992). ADs such as fluoxetine can reverse these stress-induced effects after chronic, but not acute, administration (Griebel et al., 2002; Willner et al., 1992).
Sham and irradiated mice were subjected to five weeks of CUS, beginning two weeks after the final X-ray dose, and half of the animals in each group were administered fluoxetine (10 mg/kg/day, i.p.) from weeks 3-6. The state of each animal's fur was assessed at the end of the stress period, and assigned a score based on observations from several body regions (see methods). Fluoxetine treatment was continued for one more week, after which we measured the latency to begin grooming following application of a sucrose solution to the head of each animal.

For data set [3], the system named is BrdU-positive cells in the dentate gyrus. Nature of the data set: BrdU labeling of cell proliferation, sacrifice 24 hr after BrdU. In kind it is in vivo, mouse. The following applies: chronic treatment.
Data set [4] concerns BrdU-positive cells within the SGZ and granule cell layer. Nature of the data set: Survival and phenotype of BrdU-positive cells 28 days after BrdU injection. In kind it is in vivo, mouse. The conditions noted are these: for BrdU-positive cells surviving 28 days after BrdU injection: chronic treatment. How it is done:
as §1
To determine the fate of hippocampal cells labeled with BrdU following chronic treatment with either fluoxetine or vehicle, animals were allowed to survive for a period of four weeks after injection of BrdU. During this time fluoxetine oral treatment was suspended and animals were returned to tap water. Brain sections were co-labeled with antibodies raised against BrdU and either the mature neuronal marker NeuN or the astroglial marker GFAP. […] The percentage of BrdU-positive cells within the SGZ and granule cell layer that expressed NeuN was 70±2%, and the percentage of BrdU-positive cells that expressed GFAP was 15±3%. These proportions were not influenced by the antidepressant treatment, as previously reported (Malberg et al., 2000).
as §2

[5] abbreviates: 28-day treatment via drinking water, compared to vehicle.
[6] abbreviates: 5-HT1A knockout (-/-) mice, 28 days, vs vehicle.
[7] abbreviates: wild type (+/+) mice, 28 days, vs vehicle.
Setting [8] is: four weeks after BrdU, chronic fluoxetine or vehicle, proportions not influenced by treatment.
Setting [9] is: 5-day treatment via drinking water, compared to vehicle.
Where [10] appears, read: X-irradiated animals, chronic treatment.
The mark [11] stands for this setting: sham (non-irradiated) animals, chronic treatment.

Experimental for 129/SvEv mice: The Novelty-suppressed feeding test was carried out during a 5-min period as previously described (Santarelli et al., 2001). Briefly, the testing apparatus consisted of a plastic box, 50×50×20 cm. The floor was covered with approximately 2 cm of wooden bedding. Twenty-four hours prior to behavioral testing, all food was removed from the home cage. At the time of testing, a single pellet of food (regular chow) was placed on a white paper platform positioned in the center of the box. An animal was placed in a corner of the maze and a stopwatch was immediately started. The measure of interest (chewing) was scored when the mouse was sitting on its haunches and biting with the use of forepaws. Immediately after this test, mice were transferred to their home cage and the amount of food consumed in 5 min was measured (home cage food consumption). […] Mice were always tested during the light period.
The NSF is a conflict test in which food-deprived animals are presented with a food pellet placed in the center of a brightly-lit open field. This paradigm elicits competing motivations: the drive to eat the food pellet, and the fear of venturing into the center of the arena.
Haloperidol, an antipsychotic that antagonizes D2 dopamine receptors, was used as a negative control because it is devoid of antidepressant activity in humans. NSF performance was assessed after either 5 or 28 days of oral drug administration.

As for `CCCN(CCC)C1CCc2cccc(O)c2C1` (stereo not shown) [8-OH-DPAT, 8-hydroxy-2-(di-n-propylamino) tetralin], the “cell proliferation (BrdU-labeled cells in the SGZ)” value is “not observed” in data set [1] (5-HT1A receptor KO mice, chronic treatment) and “increase in cell proliferation” in data set [1] (WT mice, chronic treatment). For the same molecule, the latency to feed entry with 129/SvEv mice (5-HT1A receptor KO mice, 28 days s.c. osmotic mini pumps, 1 mg/kg/day, vs sham) is “ineffective”; in the data set with 129/SvEv mice (WT mice, 28 days s.c. osmotic mini pumps, 1 mg/kg/day, vs sham) it was “significantly decreased”.
In the case of `O=C(CCCN1CCC(O)(c2ccc(Cl)cc2)CC1)c1ccc(F)cc1` [Haloperidol], in the data set on 129/SvEv mice (setting [5]), the latency to feed entry is listed as “ineffective”.
As to `CNCCCN1c2ccccc2CCc2ccccc21` [desipramine, Desipramine], in data set [2], the “time by which steady serum levels had been achieved” value (from here on “time”) was not above 5 days. Moreover, the latency to feed entry is reported as “effective” in the data set with 129/SvEv mice (setting [6]), “significant decreases” in the data set on 129/SvEv mice (setting [5]) and “significantly decreased” in the data set on 129/SvEv mice (setting [7]).
As for `CNCCC(Oc1ccc(C(F)(F)F)cc1)c1ccccc1` (stereo not shown) [fluoxetine, Fluoxetine], the “BrdU-labeled cells in dentate gyrus” value is given as “had no effect” in data set [1] (5-HT1A receptor KO mice) and “two-fold increase” in data set [1] (wild type mice). Also, in data set [1] (after either 11 or 28 days of treatment, vs vehicle), the “increase in the number of BrdU positive cells in the DG” value came to 60%. Also, the “number of BrdU positive cells in the DG” value in data set [1] (animals treated for 5 days) was “had no effect”. In addition, the “cell proliferation after irradiation” value in data set [1] (irradiated animals, chronic treatment) was “had no effect”. Also, the “cell proliferation in the SGZ” value in data set [1] (non-irradiated mice, chronic treatment) is recorded as “increased cell proliferation”. Moreover, the “time” value in data set [2] is not above 5 days. Further, the results for the “state of the fur (coat score)” value in the data set with BALB/c mice (irradiated animals) and in the data set with BALB/c mice (sham animals) were “absent” and “significantly improved”, respectively. In addition, the “weight loss induced by stress” value in the data set on BALB/c mice (irradiated animals) is given as “blocked this effect”; with BALB/c mice (sham animals), “trend to reverse the weight loss”. The grooming latency entry is “not in irradiated mice” in the data set on BALB/c mice (irradiated mice) and “decreased” in the data set on BALB/c mice (sham mice). For the same molecule, in data set [3], the “cell proliferation in the SVZ” value is listed as “had no effect”. The “BrdU-positive cells surviving 28 days after BrdU injection” value is listed as “not in KO” in data set [4] (5-HT1A receptor KO mice) and “had an effect” in data set [4] (WT mice). For the same molecule, the “percentage of BrdU-positive cells that expressed GFAP” value in data set [4] (setting [8]) is 15±3%. The “percentage of BrdU-positive cells that expressed NeuN” value in data set [4] (setting [8]) is 70±2%. In addition, the latency to feed result in the data set on 129/SvEv mice (setting [6]) was “insensitive”; in the data set on 129/SvEv mice (setting [9]), “had no effect”; in the data set on 129/SvEv mice (setting [5]), “significant decreases”; in the data set with 129/SvEv mice (setting [10]), “no such anxiolytic-like effect”; with 129/SvEv mice (setting [11]), “significant reduction”; in the data set on 129/SvEv mice (setting [7]) it was “significantly decreased”.
As to `CN(C)CCCN1c2ccccc2CCc2ccccc21` [imipramine, Imipramine], the “BrdU-labeled cells in dentate gyrus” value in data set [1] (5-HT1A receptor KO mice) and in data set [1] (wild type mice) was “significant increase” throughout. The “increase in the number of BrdU positive cells (SGZ and GCL)” value in data set [1] (both genotypes (+/+ and 5-HT1A -/-), 4 weeks of treatment) was approximately 2 fold. Besides, the “time” value in data set [2] is not above 5 days. The “BrdU-positive cells surviving 28 days after BrdU injection” value in data set [4] (5-HT1A receptor KO mice) and in data set [4] (WT mice) was “effective” throughout. Besides, the latency to feed entry in the data set on 129/SvEv mice (setting [6]) is given as “effective”; in the data set on 129/SvEv mice (setting [9]) it was “had no effect”; in the data set on 129/SvEv mice (setting [5]), “significant decreases”; in the data set with 129/SvEv mice (setting [10]), “no such anxiolytic-like effect”; in the data set with 129/SvEv mice (setting [11]), “significant reduction”; with 129/SvEv mice (setting [7]), “significantly decreased”.
For `NCCC(Oc1ccc(C(F)(F)F)cc1)c1ccccc1` (stereo not shown) [nor-fluoxetine], the “time” value in data set [2] is not above 5 days.

The record behind these values is US20060078499A1, “Use of hedgehog agonist to treat depression” (priority 2003, published 2006).
